In assay [1] the test system is nursery pigs. Description: Example 4: organic trace minerals and antibiotics with GEM blend in low lactose diets, nursery pig performance (BW, ADG, ADFI, GF). The class given is in vivo. To be noted: Phase I, 0 to 7 days post weaning; regardless of lactose level; P<0.07. As to the method: Forty-two pens of pigs with about 20-25 pigs/pen blocked by weight were used. Pig body weights were collected initially (day 0) and at the end of each phase (days 7 and 21 post weaning). Feed consumption was measured from days 0-7 (Phase I) and from days 8-21 (Phase II) post weaning. Growth rate was calculated as average daily gain (ADG), daily feed intake was calculated as average daily feed intake (ADFI) and feed efficiency was calculated as the ratio of gain:feed (GF).
Phase I was from day 0 to 7 post weaning and Phase II was from day 8 to 21 post weaning. Composition and analysis of the experimental diets used in Phase I are described in Tables 18 and 19, respectively. Composition and analysis of the experimental diets used in Phase II are described in Tables 20 and 21, respectively. Diets in treatments 1 and 6 contained the high lactose levels of 20% and 10% in Phase I and II, respectively. All other treatments had diets containing the low lactose levels of 5% and 2.5% in Phase I and II, respectively. Antibiotic, GEM blend and OTM treatments during the two phases were as follows:
Phase I (0 to 7 Days): • 1. High lactose (20%)+enteric antibiotic. • 2. Low lactose (5%)+enteric antibiotic. • 3. Low lactose (5%)+enteric antibiotic+GEM blend. • 4. Low lactose (5%)+enteric antibiotic+OTM. • 5. Low lactose (5%)+enteric antibiotic+OTM+GEM blend. • 6. […]

Assay [2] deals with nursery pigs. Description: Example 1: lactose level and acidifying agent in nursery pig diets, growth performance (BW, ADG, ADFI, GF). Format: in vivo. To be noted: for feed intake: Phase I; for average daily feed intake (ADFI): Phase II. From the text: The following study was designed to determine whether a feed supplement comprising an acidifying agent could counteract the negative effects of lower levels of lactose in nursery pigs. A two-phase feeding program, with and without an acidifying agent comprising 2-hydroxy-4-methylthiobutanoic acid, fumaric acid, and benzoic acid (i.e., as provided by ACTIVATE® DA, Novus Intl), was implemented with industry norms for energy, digestible amino acids, vitamins, and minerals. The two-phase feeding program introduced ingredients in a progressive way to gently enhance maturation of the gastrointestinal system, while at the same time supplying special ingredients that should encourage maximal growth performance. The pigs were fed a Phase I diet from weaning to 10 days post weaning, and a Phase II diet from days 11 to 21 post weaning. The levels of lactose were varied in each diet phase and each level of lactose was examined with and without the acidifying agent.
A total of approximately 840 commercial breed nursery pigs (TR-4X C22 PIC lines, PIC Intl., Franklin, Ky.) were blocked by weight and sex, and then placed into a pen containing about 20-22 pigs per pen. There were a total of 42 pens that were used for 7 replications/treatment with approximately equal numbers of pens per sex/treatment. Treatments were randomly assigned to pens within a room prior to treatment initiation. Each pen was accounted as an experimental unit. The animals were cared for according to standard site practices, which include daily observations, temperature monitoring, feeder observations, and waterer observations.
Diets were balanced to meet 60 TID Met & Cys:Lys. The ideal amino acid ratio of Thr, Tryp, Ile, and Val to Lys was maintained at a minimum of 65%, 16%, 55%, and 65%, respectively, based on the TID ideal amino acid profile for swine. Diets that included the acidifying agent used MHA (DL-methionine hydroxyl analog) to balance for the methionine source, while diets without the acidifying agent used DL-Met as a methionine source. All diets were balanced to have equivalent methionine activity and properly mixed according to the diet formulations presented in Table 1 and Table 2 for Phase I, and Table 4 and Table 5 for Phase II. Calculated analyses of the diets are presented in Tables 3 and 6 for Phase I and II, respectively.
The treatment arrangements were a 3×2 factorial arrangement with three levels of lactose with and without the acidifying agent (i.e., ACTIVATE® DA at a 0.5%). Diets were formulated to provide 5%, 10%, or 20% lactose equivalent during Phase I (0 to 10 days post weaning) and 2.5%, 5%, or 10% lactose equivalent during Phase II (11 to 21 days post weaning). The lactose equivalent was provided by […]-80® (80% lactose content; International Ingredient Corporation, St. Louis, Mo.). Fishmeal and SDPP were held constant across the diets, and corn and CWG were allowed to float to provide similar energy levels. All diets were supplemented with the enteric antibiotic carbodox (i.e., MECADOX®, Phibro Animal Health, Ridgefield Park, N.J.).
The animals were observed daily including weekends and holidays. Any abnormal observations or mortalities were recorded by pen with weight and date. The body weights of the pigs were collected initially and at the end of each phase. The feed intake was collected for each phase of growth. Feed offered was measured by weighing each amount of feed used for each pen. Feed refused was measured by weighing the amount of feed left in the feeder and any remainder that had previously been recorded as feed offered.
Data were analyzed by analysis of variance procedures appropriate for a randomized block design using the General Linear Models procedure of SAS. Differences of least squares means for treatments from control pigs were determined using a least square comparison.

As for `COC(=O)N/N=C/c1c[n+]([O-])c2ccccc2[n+]1[O-]` [enteric antibiotic, carbodox], the feed intake with nursery pigs [1] was 179 g/day.

`OC[C@H]1O[C@@H](O[C@H]2[C@H](O)[C@@H](O)C(O)O[C@@H]2CO)[C@H](O)[C@@H](O)[C@H]1O` (stereo partly shown) [lactose]: the results for the feed intake in the assay on nursery pigs [2] (high level of lactose (20%)), in the assay with nursery pigs [2] (intermediate level of lactose (10%)) and with nursery pigs [2] (lowest level of lactose (5%)) were 146 g/day, 150 g/day and 132 g/day, respectively. The “average daily feed intake (ADFI)” value in the assay with nursery pigs [2] (highest lactose level (10%)) came out at 408 g/day; in the assay on nursery pigs [2] (intermediate lactose level (5%)) it was 400 g/day; in the assay with nursery pigs [2] (lowest lactose level ([…])) it was 384 g/day.

Source of the values: patent US20110008388A1, “PIGLET FEED RATIONS HAVING LOW LEVELS OF FERMENTABLE CARBOHYDRATES” (NOVUS INTERNATIONAL INC., priority 2007, published 2011).
